Reference: PubChem BioAssay (NCI)
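96-well plates; 48 h exposure; 5 concentrations. Endpoints by linear interpolation between flanking doses. Not reached: highest tested concentration assigned. At the GI50, growth is halved. The concentration for full growth arrest is given as TGI.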

Legend:
Experiment in all cases: inhibition of tumour cell growth, NCI panel, 48 h
786-0 renal = system: 786-0 renal
A498 renal = system: A498 renal
A549 NSCLC = system: A549 NSCLC
ACHN renal = system: ACHN renal
BT-549 breast = system: BT-549 breast
CAKI-1 renal = system: CAKI-1 renal
CCRF-CEM leukemia = system: CCRF-CEM leukemia
COLO 205 colon = system: COLO 205 colon
DU-145 prostate = system: DU-145 prostate
EKVX NSCLC = system: EKVX NSCLC
HCC-2998 colon = system: HCC-2998 colon
HCT-116 colon = system: HCT-116 colon
HCT-15 colon = system: HCT-15 colon
HL-60(TB) leukemia = system: HL-60(TB) leukemia
HOP-62 NSCLC = system: HOP-62 NSCLC
HOP-92 NSCLC = system: HOP-92 NSCLC
HS 578T breast = system: HS 578T breast
HT29 colon = system: HT29 colon
IGROV1 ovarian = system: IGROV1 ovarian
K-562 leukemia = system: K-562 leukemia
KM12 colon = system: KM12 colon
LOX IMVI melanoma = system: LOX IMVI melanoma
M14 melanoma = system: M14 melanoma
MALME-3M melanoma = system: MALME-3M melanoma
MDA-MB-231 breast = system: MDA-MB-231 breast
MDA-MB-435 = system: MDA-MB-435
MOLT-4 leukemia = system: MOLT-4 leukemia
NCI-H226 lung = system: NCI-H226 lung
NCI-H23 lung = system: NCI-H23 lung
NCI-H460 lung = system: NCI-H460 lung
NCI-H522 lung = system: NCI-H522 lung
NCI/ADR-RES ovarian = system: NCI/ADR-RES ovarian
OVCAR-3 ovarian = system: OVCAR-3 ovarian
OVCAR-4 ovarian = system: OVCAR-4 ovarian
OVCAR-5 ovarian = system: OVCAR-5 ovarian
OVCAR-8 ovarian = system: OVCAR-8 ovarian
PC-3 prostate = system: PC-3 prostate
RPMI-8226 leukemia = system: RPMI-8226 leukemia
RXF 393 renal = system: RXF 393 renal
SF-268 CNS = system: SF-268 CNS
SF-295 CNS = system: SF-295 CNS
SK-MEL-2 melanoma = system: SK-MEL-2 melanoma
SK-MEL-28 melanoma = system: SK-MEL-28 melanoma
SK-MEL-5 melanoma = system: SK-MEL-5 melanoma
SK-OV-3 ovarian = system: SK-OV-3 ovarian
SNB-19 CNS = system: SNB-19 CNS
SNB-75 CNS = system: SNB-75 CNS
SR leukemia = system: SR leukemia
SW-620 colon = system: SW-620 colon
T-47D breast = system: T-47D breast
TK-10 renal = system: TK-10 renal
U251 CNS = system: U251 CNS
UACC-257 melanoma = system: UACC-257 melanoma
UACC-62 melanoma = system: UACC-62 melanoma
UO-31 renal = system: UO-31 renal
MCF7 breast = system: MCF7 breast
SF-539 CNS = system: SF-539 CNS
SN12C renal = system: SN12C renal

In the case of `COc1ccc2c(c1)CC1Cc3cc(OC)c(OC)cc3CN1CC2` (centres undefined), the TGI (786-0 renal) is reported as greater than 100 µM, the TGI (A498 renal) is reported as greater than 100 µM and the TGI (A549 NSCLC) is reported as greater than 100 µM. It also gave a TGI (ACHN renal) greater than 100 µM, a TGI (BT-549 breast) greater than 100 µM and a TGI (CAKI-1 renal) greater than 100 µM. For the same compound, the TGI (CCRF-CEM leukemia) was 89 µM, the TGI (COLO 205 colon) was greater than 100 µM and the TGI (DU-145 prostate) was greater than 100 µM. For the same compound, the TGI (EKVX NSCLC) was greater than 100 µM, the TGI (HCC-2998 colon) was greater than 100 µM and the TGI (HCT-116 colon) was greater than 100 µM. It also gave a TGI (HCT-15 colon) greater than 100 µM, a TGI (HL-60(TB) leukemia) of 34.3 µM and a TGI (HOP-62 NSCLC) greater than 100 µM. For the same compound, the TGI (HOP-92 NSCLC) was 67.2 µM, the TGI (HS 578T breast) was greater than 100 µM and the TGI (HT29 colon) was greater than 100 µM. The TGI (IGROV1 ovarian) was greater than 100 µM, the TGI (K-562 leukemia) was greater than 100 µM and the TGI (KM12 colon) was greater than 100 µM. It also gave a TGI (LOX IMVI melanoma) greater than 100 µM, a TGI (M14 melanoma) greater than 100 µM and a TGI (MALME-3M melanoma) greater than 100 µM. The TGI (MDA-MB-231 breast) was greater than 100 µM, the TGI (MDA-MB-435) was greater than 100 µM and the TGI (MOLT-4 leukemia) was greater than 100 µM. For the same compound, the TGI (NCI-H226 lung) was greater than 100 µM, the TGI (NCI-H23 lung) was greater than 100 µM and the TGI (NCI-H460 lung) was greater than 100 µM. It also gave a TGI (NCI-H522 lung) greater than 100 µM, a TGI (NCI/ADR-RES ovarian) greater than 100 µM and a TGI (OVCAR-3 ovarian) greater than 100 µM. The TGI (OVCAR-4 ovarian) was greater than 100 µM, the TGI (OVCAR-5 ovarian) was greater than 100 µM and the TGI (OVCAR-8 ovarian) was greater than 100 µM. It also gave a TGI (PC-3 prostate) greater than 100 µM, a TGI (RPMI-8226 leukemia) greater than 100 µM and a TGI (RXF 393 renal) greater than 100 µM. For the same compound, the TGI (SF-268 CNS) was greater than 100 µM, the TGI (SF-295 CNS) was greater than 100 µM and the TGI (SK-MEL-2 melanoma) was greater than 100 µM. It also gave a TGI (SK-MEL-28 melanoma) greater than 100 µM, a TGI (SK-MEL-5 melanoma) greater than 100 µM and a TGI (SK-OV-3 ovarian) greater than 100 µM. It also gave a TGI (SNB-19 CNS) greater than 100 µM, a TGI (SNB-75 CNS) greater than 100 µM and a TGI (SR leukemia) of 60.3 µM. For the same compound, the TGI (SW-620 colon) was greater than 100 µM, the TGI (T-47D breast) was greater than 100 µM and the TGI (TK-10 renal) was greater than 100 µM. For the same compound, the TGI (U251 CNS) was greater than 100 µM, the TGI (UACC-257 melanoma) was greater than 100 µM and the TGI (UACC-62 melanoma) was greater than 100 µM. The TGI (UO-31 renal) was greater than 100 µM.
Compound `Nc1nc(-c2cccc3ccccc23)cc2ccccc12` has a GI50 (786-0 renal) of 0.503 µM, a TGI (786-0 renal) of 13.4 µM and a GI50 (A498 renal) of 0.351 µM. For the same compound, the TGI (A498 renal) was 3.96 µM, the GI50 (A549 NSCLC) was 0.476 µM and the TGI (A549 NSCLC) was 14.9 µM. The GI50 (ACHN renal) was 1.1 µM, the TGI (ACHN renal) was 18.3 µM and the GI50 (BT-549 breast) was 13.2 µM. The TGI (BT-549 breast) was 27.9 µM, the GI50 (CAKI-1 renal) was 0.46 µM and the TGI (CAKI-1 renal) was 19.6 µM. The GI50 (CCRF-CEM leukemia) was 0.234 µM, the TGI (CCRF-CEM leukemia) was 3.17 µM and the GI50 (COLO 205 colon) was 0.332 µM. The TGI (COLO 205 colon) was 1.9 µM, the GI50 (DU-145 prostate) was 0.377 µM and the TGI (DU-145 prostate) was 2.98 µM. The GI50 (EKVX NSCLC) was 1.29 µM, the TGI (EKVX NSCLC) was greater than 40.4 µM and the GI50 (HCC-2998 colon) was 0.231 µM. It also gave a TGI (HCC-2998 colon) of 1.12 µM, a GI50 (HCT-116 colon) of 0.342 µM and a TGI (HCT-116 colon) of 13.4 µM. It also gave a GI50 (HCT-15 colon) of 0.409 µM, a TGI (HCT-15 colon) of 12.6 µM and a GI50 (HL-60(TB) leukemia) of 0.232 µM. It also gave a TGI (HL-60(TB) leukemia) greater than 100 µM, a GI50 (HOP-62 NSCLC) of 1 µM and a TGI (HOP-62 NSCLC) of 17.6 µM. For the same compound, the GI50 (HOP-92 NSCLC) was 1.63 µM, the TGI (HOP-92 NSCLC) was 11.9 µM and the GI50 (HS 578T breast) was 0.245 µM. The TGI (HS 578T breast) was 3.91 µM, the GI50 (HT29 colon) was 0.358 µM and the TGI (HT29 colon) was 12.9 µM. The GI50 (IGROV1 ovarian) was 0.444 µM, the TGI (IGROV1 ovarian) was 5.44 µM and the GI50 (K-562 leukemia) was 4.81 µM. It also gave a TGI (K-562 leukemia) greater than 100 µM, a GI50 (KM12 colon) of 0.386 µM and a TGI (KM12 colon) of 9.7 µM. The GI50 (LOX IMVI melanoma) was 0.777 µM, the TGI (LOX IMVI melanoma) was 14.2 µM and the GI50 (M14 melanoma) was 0.549 µM. For the same compound, the TGI (M14 melanoma) was 12.4 µM, the GI50 (MCF7 breast) was 0.108 µM and the TGI (MCF7 breast) was 13.1 µM. For the same compound, the GI50 (MDA-MB-231 breast) was 0.712 µM, the TGI (MDA-MB-231 breast) was 13.4 µM and the GI50 (MOLT-4 leukemia) was 0.638 µM. It also gave a TGI (MOLT-4 leukemia) greater than 54.2 µM, a GI50 (NCI-H226 lung) of 1.12 µM and a TGI (NCI-H226 lung) of 15.9 µM. It also gave a GI50 (NCI-H23 lung) of 0.732 µM, a TGI (NCI-H23 lung) of 24.1 µM and a GI50 (NCI-H460 lung) of 0.332 µM. For the same compound, the TGI (NCI-H460 lung) was 10.6 µM, the GI50 (NCI-H522 lung) was 0.324 µM and the TGI (NCI-H522 lung) was 2.85 µM. It also gave a GI50 (NCI/ADR-RES ovarian) of 0.463 µM, a TGI (NCI/ADR-RES ovarian) of 22.1 µM and a GI50 (OVCAR-3 ovarian) of 0.343 µM. The TGI (OVCAR-3 ovarian) was 10.4 µM, the GI50 (OVCAR-4 ovarian) was 1.6 µM and the TGI (OVCAR-4 ovarian) was 24.4 µM. For the same compound, the GI50 (OVCAR-5 ovarian) was 1.25 µM, the TGI (OVCAR-5 ovarian) was 19.7 µM and the GI50 (OVCAR-8 ovarian) was 0.577 µM. The TGI (OVCAR-8 ovarian) was 17.8 µM, the GI50 (PC-3 prostate) was 0.257 µM and the TGI (PC-3 prostate) was 4.08 µM. For the same compound, the GI50 (RPMI-8226 leukemia) was 0.214 µM, the TGI (RPMI-8226 leukemia) was 0.573 µM and the GI50 (SF-268 CNS) was 0.53 µM. It also gave a TGI (SF-268 CNS) of 10.8 µM, a GI50 (SF-295 CNS) of 0.278 µM and a TGI (SF-295 CNS) of 13.8 µM. For the same compound, the GI50 (SF-539 CNS) was 0.291 µM, the TGI (SF-539 CNS) was 1.69 µM and the GI50 (SK-MEL-2 melanoma) was 0.647 µM. The TGI (SK-MEL-2 melanoma) was 22.3 µM, the GI50 (SK-MEL-28 melanoma) was 0.563 µM and the TGI (SK-MEL-28 melanoma) was 24 µM. For the same compound, the GI50 (SK-MEL-5 melanoma) was 0.287 µM, the TGI (SK-MEL-5 melanoma) was 10.3 µM and the GI50 (SK-OV-3 ovarian) was 0.466 µM. For the same compound, the TGI (SK-OV-3 ovarian) was 13.9 µM, the GI50 (SN12C renal) was 0.789 µM and the TGI (SN12C renal) was 16 µM. For the same compound, the GI50 (SNB-19 CNS) was 0.514 µM, the TGI (SNB-19 CNS) was 13.4 µM and the GI50 (SNB-75 CNS) was 0.206 µM. The TGI (SNB-75 CNS) was 3.8 µM, the TGI (SR leukemia) was greater than 44.2 µM and the GI50 (SW-620 colon) was 0.314 µM. It also gave a TGI (SW-620 colon) of 20 µM, a GI50 (T-47D breast) of 0.359 µM and a TGI (T-47D breast) of 33.9 µM. The GI50 (TK-10 renal) was 6.3 µM, the TGI (TK-10 renal) was 29.4 µM and the GI50 (U251 CNS) was 0.494 µM. For the same compound, the TGI (U251 CNS) was 13.2 µM, the GI50 (UACC-257 melanoma) was 0.196 µM and the TGI (UACC-257 melanoma) was 16 µM. For the same compound, the GI50 (UACC-62 melanoma) was 0.521 µM, the TGI (UACC-62 melanoma) was 14.6 µM and the GI50 (UO-31 renal) was 1.17 µM. For the same compound, the TGI (UO-31 renal) was 9.68 µM.
